Tests used:
Type in all cases: cell-based, Human cytomegalovirus (HCMV)
[1] = system: HCMV infection of ARPE19 epithelial cells; test: Peptide blocking assay, infection of ARPE19 cells (percent GFP or IE positive cells); settings: short peptides 150 uM preincubated with TB40E, ARPE19, MOI=2.0, 2 dpi
Method: (A) Different amounts of peptide 1 were preincubated with TB40E-GFP virus and the mixture applied to ARPE19. Viral DNA levels were quantified by qPCR. (B) The results in (A) are presented as the relative amount of viral DNA relative to the DMSO control. (C) TB40E-GFP virus was preincubated with peptide 1 (100 μg/ml), or DMSO, followed by infection of ARPE19 cells (MOI=2.0). Cells were imaged for GFP expression at 2 dpi (D2) and 7 dpi (D7). (D) TB40E-GFP or BADrUL131-GFP virus, both expressing PC, were preincubated with peptide 1 (100 μg/ml), or DMSO prior to infection of ARPE19 cells (MOI=2.0). Cells were fixed and imaged for GFP at 2 dpi. All data represent the mean of n=3 experiments+/−SD. (E) Culture media supernatants from (C) were harvested on the indicated dpi and assayed for infectious virus by plaque assay. Values indicate the mean percent infected cells of 3 independent experiments±SD. ****p<0.0001.
FIG. 9. […] TB40E-GFP encoding the viral PC or AD169 lacking PC were preincubated with peptide 1 (100 μg/ml) and then infected on ARPE19 epithelial cells or HEL fibroblasts (MOI=2.0). Cells were fixed, permeabilized, stained for DNA, immunostained for anti-immediate early protein (IE) and imaged. […] Values indicate the mean percentage of infected cells of n=3 experiments±SD. **p<0.01; ***p<0.001.
FIG. 11. Each of the short peptides (aa sequences listed in Table 4; 150 uM), Peptide 1 (32.6 μM), or DMSO alone was preincubated with TB40E virus, followed by infection of ARPE19 cell lines (MOI=2.0). Cells were fixed and imaged for GFP and DNA at 2 dpi. Quantitation data indicating the percent GFP positive cells.
Live cell images: Phase and GFP signal images were captured on a Zeiss microscope (Zeiss AxioObserver Z1) at 10× magnification. Fixed cell images: cells were washed with PBS (Life Technologies) and fixed with 4% formalin in PBS (Sigma). DNA was stained with Hoechst 33342 dye (Life Technologies). The fixed cells were imaged using an Image Xpress Micro (IXM, Molecular Devices) at 4× magnification. Images were analyzed with MetaXpress imaging software (Molecular Devices) to determine the total cells per well and the percentage of infected cells (GFP positive) in each well. For IE immunostaining: fixed cells were permeabilized with 0.2% Triton X-100 (Sigma) in PBS. Blocking was performed with 1% BSA (Calbiochem, 2930) in PBS with 0.3M glycine (Sigma). Cells were then incubated in antibody targeting the major IE proteins (IE, EMD Millipore, MAB8131) diluted in 1% BSA in PBS. Cells were then incubated in secondary antibody (Texas Red-conjugated goat anti-mouse IgG2A, Southern Biotech, 1080-07) in PBS containing 1% BSA.
At 2 dpi with HCMV TB40E-GFP virus at the indicated MOI, ARPE19 cells were fixed with 4% formaldehyde and nuclei stained with Hoechst 33342. ARPE19 cells were imaged on an automated IXM scanning microscope. Numbers of infected cells were determined by calculating the percent GFP positive cells using MetaXpress software.
The noted synthetic peptides (100 ug/ml each or as described) were mixed with TB40E-GFP virus (1.2×10^6 PFU) and incubated at 37° C. for 2 h by rocking. The resulting samples were then subjected to the virus binding or infection assay.

[2] = system: TB40E-GFP infection of ARPE19 cells; test: cAMP/PKA signaling pathway modulation, TB40E-GFP infection; settings: H-89 20 μM, SQ22536 150 μM, FSK 20 μM, 2 h prior to infection, MOI=4.0, 48 hpi
Method: FIGS. 7A-C. HCMV receptor engagement and cAMP/PKA signaling. ARPE19 or OR14I1 knock down cells were pretreated with phosphokinase A (PKA) inhibitor H-89 (20 μM), adenylate cyclase antagonist, SQ22536 (150 μM), or adenylate cyclase activator, forskolin (FSK; 20 μM) for 2 h prior to TB40E-GFP infection (MOI=4.0). Cells were fixed at 48 hpi and images taken.
H-89, SQ22536 and Foskolin were purchased from Sigma-Aldrich Chemicals. Wild type ARPE19 or ARPE19 cells expressing the indicated shRNAs were treated with protein kinase A (PKA) inhibitor H-89 (20 μM), adenylate cyclase antagonist, SQ22536 (150 μM), or adenylate cyclase activator, forskolin (FSK; 20 μM) for 2 h prior to infection with TB40E-GFP (MOI=2.0). After 2 h, the medium was then replaced by the standard medium that also contained the noted small molecules. Images were taken at 2 dpi.
HCMV receptor engagement and cAMP/PKA signaling was also evaluated. ARPE19 or OR14I1 knock down cells were pretreated with phosphokinase A (PKA) inhibitor H-89 (20 μM), adenylate cyclase antagonist, SQ22536 (150 μM), or adenylate cyclase activator, forskolin (FSK; 20 μM) for 2 h prior to TB40E-GFP infection (MOI=4.0).

[3] = system: TB40E-GFP infection of ARPE19 cells; test: shRNA knock down ARPE19 cells infected with TB40E-GFP; settings: for percentage of GFP positive cells (flow cytometry): shRNA knock down ARPE19, TB40E-GFP, 48 hpi; for resistance to TB40E-GFP infection (GFP images): shRNA knock down ARPE19 cells, MOI=0.1, 48 hpi
Method: (§1) Each shRNA was cloned into the pLKO.1-blast (Addgene) lentiviral vector followed by viral packing and multiple rounds of amplification in 293T cells. Essentially, the pLKO.1-blast constructs and packaging plasmids were co-transfected into 293T cells with the resulting supernatant harvested at 36 h. Lentiviruses were recovered by ultracentrifugation for 2 h at 28,000 rpm in a Beckman SW28 rotor and resuspensed in DMEM. The lentiviruses were used to transduce the ARPE19 or HEL cells to generate shRNA knock down cells. Populations of stable cells were selected with blasticidin (Invitrogen, 10 μg/ml) for 1 week.
48 h after HCMV TB40E-GFP infection, ARPE19 cells were then treated with cell dissociation buffer (Gibco) and incubated at 37° C. for 10 min. Samples were then washed three times with cold buffer and fixed with cold 2% paraformadehyde in PBS. Cells were pelleted and washed and resuspended in washing buffer (0.1% tween-20 in PBS). Finally, the cells were resuspended in staining buffer (1% BSA, 0.1% sodium azide in HBSS) after pelleting again and immunofluorescent cells analyzed using a MACSQUANT analyzer 10 (Miltenyi Biotec) using blue laser 488 nm and filter 525/50 nm. Results were analyzed using FLOWJO V9.9 image analysis software.
(§2) The role of these proteins in fibroblast cell-type specific tropism in HCMV infection was also evaluated. The sgRNA knock out HEL-cas9 fibroblast pools were infected with HCMV Ad169 virus at MOI=3, and images were taken 48 hpi. […] HCMV infection resistance was also evaluated after knockdown using shRNA, in epithelial cells. The shOR14I1, shDMBT1 or shPDGFRA shRNA knock down ARPE19 cells were infected with TB40E-GFP virus at MOI=0.1, and images were taken 48 hpi. […] Actin is included as a loading control. Resistance to CMV infection was also evaluated in shPDGFRA, shOR14I1 or shDMBT1 knockdown HEL fibroblasts. Fibroblasts were infected with Ad169 at M01=1.0, and images were taken 48 hpi. […] Western blotting was used to confirm the depletion of PDGFRA and OR14I1 in the cells used in the experiments shown in FIG. 2H; the results are shown in FIG. 2I.

[4] = system: TB40E-GFP entry into ARPE19 cells; test: Cell-internalized virus assay in shRNA transduced ARPE19 cells; settings: shRNA transduced ARPE19, TB40E-GFP MOI of 2.0, on ice 1 h then 37° C. for 2 h
Method: In parallel to the virus binding assay, a subset of plates were then shifted to 37° C. for 2 h to allow virus entry. […] After 10 cold PBS washes, internalized viral DNA levels were quantified by qPCR.
To determine whether human OR14I1 and DMBT1 are required for optimal binding of HCMV TB40E-GFP to cells, shPDGFRA, shOR14I1 and shDMBT1 transduced ARPE19 cells were infected with TB40E-GFP at an MOI of 2.0 on ice for 1 h. The cells were washed ten times with cold PBS, and viral DNA associated with the cells was quantified by qPCR. As shown in FIGS. 3A-B, OR14I1 and DMBT1 are required for optimal binding of HCMV TB40E-GFP to cells. In addition, shPDGFRA, shDMBT1 and shOR14I1 transduced ARPE19 cells were infected with TB40E-GFP at an MOI of 2.0 on ice for 1 h. The cells were then shifted to 37° C. for 2 h to allow the virus entry. […] After 10 cold PBS washes, internalized viral DNA levels were quantified by qPCR.

[5] = system: HCMV Ad169 infection of HEL fibroblasts; test: shRNA knockdown HEL fibroblasts infected with Ad169; settings: MOI=1.0, 48 hpi
Method: as §1, §2

Molecule | ability to inhibit HCMV infection (percent GFP positive cells) [1] | percentage of GFP positive cells (flow cytometry) [3] | resistance to TB40E-GFP infection (GFP images) [3] | internalized viral DNA, viral load as compared to control-infected cells [4] | resistance to Ad169 infection [5] | further results
LLMEFSGIWELQV (OR14I1 peptide 11-23aa) | best activity |  |  |  |  | 
FLLMEFSGIWELQ (OR14I1 peptide 10-22aa) | best activity |  |  |  |  | 
LMEFSGIWELQVL (OR14I1 peptide) [Peptide 12-24] | best activity |  |  |  |  | 
O=S(=O)(NCCNC/C=C/c1ccc(Br)cc1)c1cccc2cnccc12 [Peptide H-89] |  |  |  |  |  | infectivity of TB40E-GFP in ARPE19 epithelial cells [2]: reduced infectivity significantly
GCAGAAGCTCCATCTCTTATC (expressed or natural sequence) [shOR14I1, shRNA targeting OR14I1, in pLKO.1-blast lentiviral vector] |  | significant decrease in GFP-expressing cells | resistance was seen | about 50% | not | 
EFLLMEFSGIWEL (OR14I1 peptide 9-21aa) | some inhibition |  |  |  |  | 
GGAGTCAACTGTAGCAGAAGG (expressed or natural sequence) [shDMBT1, shRNA targeting DMBT1, in pLKO.1-blast lentiviral vector] |  | significant decrease in GFP-expressing cells | resistance was seen | about 50% | not | 
GCCTTTGTACCTCTAGGAATG (expressed or natural sequence) [shPDGFRA, shRNA targeting PDGFRA, in pLKO.1-blast lentiviral vector, reference compound] |  | significant decrease in GFP-expressing cells | resistance was seen | about 50% | resistant to infection | 
Nc1ncnc2c1ncn2C1CCCO1 (stereo not drawn) [SQ22536, 9-(Tetrahydro-2-furanyl)-9H-purin-6-amine] |  |  |  |  |  | infectivity of TB40E-GFP in ARPE19 epithelial cells [2]: reduced infectivity significantly

From patent US12268901B2, “Targeting cell tropism receptors to inhibit cytomegalovirus infection” (priority 2017, dated 2025)
